Measurements taken from ChEMBL document CHEMBL5321233, “Biological activity of 1,2,3-triazole-2-amino-1,4-naphthoquinone derivatives and their evaluation as therapeutic strategy for malaria control” (Eur J Med Chem, 2023).
The source made the active and inactive calls. The calls are words filed in the database; no cut-off is given here.

Assays:
[1] = Acute toxicity in Albino Swiss mouse assessed as behavioural toxicity at 300 mg/kg, po administered as single dose measured after 14 days; assay type: organism-based; details: in vivo, 336 h, time 14 day
[2] = Acute toxicity in Albino Swiss mouse assessed as change in motor function at 300 mg/kg, po administered as single dose measured after 14 days; assay type: organism-based; details: in vivo, 336 h, time 14 day
[3] = Acute toxicity in Albino Swiss mouse assessed as escape reaction at 300 mg/kg, po administered as single dose measured after 14 days; assay type: organism-based; details: in vivo, 336 h, time 14 day
[4] = Acute toxicity in Albino Swiss mouse assessed as contortions at 300 mg/kg, po administered as single dose measured after 14 days; assay type: organism-based; details: in vivo, 336 h, time 14 day
[5] = Acute toxicity in Albino Swiss mouse assessed as change in diarrhea at 300 mg/kg, po administered as single dose measured after 14 days; assay type: organism-based; details: in vivo, 336 h, time 14 day
[6] = Octanol-water partition coefficient, logP of the compound; assay type: physicochemical
[7] = Acute toxicity in Albino Swiss mouse assessed as change in relative weight of spleen at 300 mg/kg, po administered as single dose measured after 14 days; assay type: organism-based; details: in vivo, 336 h, time 14 day
[8] = Hemolytic activity in human red blood cells assessed as hemoglobin release at 250 to 15.6 uM incubated for 60 mins by spectrophotometry; assay type: toxicity, cell-based, Erythrocyte; details: dose 250-15.6 µM, read-out: Activity
[9] = Acute toxicity in Albino Swiss mouse assessed as aggressiveness at 300 mg/kg, po administered as single dose measured after 14 days; assay type: organism-based; details: in vivo, 336 h, time 14 day
[10] = Acute toxicity in Albino Swiss mouse assessed as signs of toxicity at 300 mg/kg, po administered as single dose measured after 14 days; assay type: organism-based; details: in vivo, 336 h, time 14 day
HepG2 = test: Cytotoxicity against human HepG2 cells incubated for 24 hrs by MTT assay; assay type: functional
[11] = Selectivity index, ratio of CC50 for human HepG2 cells to IC50 for chloroquine-resistant Plasmodium falciparum W2 infected in human erythrocytes; assay type: toxicity, cell-based; details: read-out: Ratio CC50/IC50
[12] = Acute toxicity in Albino Swiss mouse assessed as change in urination volume at 300 mg/kg, po administered as single dose measured after 14 days; assay type: organism-based; details: in vivo, 336 h, time 14 day
[13] = Cytotoxicity against African green monkey Vero cells incubated for 24 hrs by MTT assay; assay type: toxicity, cell-based; details: chlorocebus sabaeus
[14] = Acute toxicity in Albino Swiss mouse assessed as signs of pallor at 300 mg/kg, po administered as single dose measured after 14 days; assay type: organism-based; details: in vivo, 336 h, time 14 day
[15] = Acute toxicity in Albino Swiss mouse assessed as change in relative weight of liver at 300 mg/kg, po administered as single dose measured after 14 days; assay type: organism-based; details: in vivo, 336 h, time 14 day
[16] = Acute toxicity in Albino Swiss mouse assessed as change in defecation at 300 mg/kg, po administered as single dose measured after 14 days; assay type: organism-based; details: in vivo, 336 h, time 14 day
Plasmodium falciparum [17] = test: Antimalarial activity against chloroquine-resistant Plasmodium falciparum W2 infected in human erythrocytes assessed as parasite growth inhibition incubated for 48 hrs by geimsa staining based microscopy; assay type: functional, organism-based; details: W2, Erythrocyte
[18] = Acute toxicity in Albino Swiss mouse assessed as change in relative weight of kidney at 300 mg/kg, po administered as single dose measured after 14 days; assay type: organism-based; details: in vivo, 336 h, time 14 day
[19] = Selectivity index, ratio of CC50 for African green monkey Vero cells to IC50 for chloroquine-resistant Plasmodium falciparum W2 infected in human erythrocytes; assay type: toxicity, cell-based; details: read-out: Ratio CC50/IC50
[20] = Acute toxicity in Albino Swiss mouse assessed as signs of hyperemia at 300 mg/kg, po administered as single dose measured after 14 days; assay type: organism-based; details: in vivo, 336 h, time 14 day
[21] = Acute toxicity in Albino Swiss mouse assessed as animal mortality at 300 mg/kg, po administered as single dose measured after 14 days; assay type: organism-based; details: in vivo, 336 h, time 14 day
[22] = Acute toxicity in Albino Swiss mouse assessed as change in sensory function at 300 mg/kg, po administered as single dose measured after 14 days; assay type: organism-based; details: in vivo, 336 h, time 14 day
[23] = Acute toxicity in Albino Swiss mouse assessed as change in urine color at 300 mg/kg, po administered as single dose measured after 14 days; assay type: organism-based; details: in vivo, 336 h, time 14 day
[24] = Hemolytic activity in human red blood cells type A assessed as hemoglobin release at 500 to 1000 uM incubated for 60 mins by spectrophotometry; assay type: toxicity, cell-based, Erythrocyte; details: dose 500-1000 µM, read-out: Activity
[25] = Acute toxicity in Albino Swiss mouse assessed as signs of cyanosis at 300 mg/kg, po administered as single dose measured after 14 days; assay type: organism-based; details: in vivo, 336 h, time 14 day
Plasmodium berghei [26] = test: Antimalarial activity against Plasmodium berghei ANKA infected in Albino Swiss mouse assessed as half-survival time at 30 mg/kg, po administered for 4 consecutive days measured for 30 days (reference value: 16 day); assay type: functional; details: time 30 day
Plasmodium falciparum [27] = test: Induction of morphological changes in chloroquine-resistant Plasmodium falciparum W2 trophozoites assessed as dense cytoplasm with undefined organelles by TEM analysis; assay type: functional, organism-based
[28] = Toxicity in Albino Swiss mouse infected with Plasmodium berghei ANKA assessed as mortality rate at 30 mg/kg, po administered for 4 consecutive days measured for 14 days relative to control; assay type: organism-based; details: in vivo, time 14 day, read-out: Activity
Plasmodium falciparum [29] = test: Induction of morphological changes in chloroquine-resistant Plasmodium falciparum W2 trophozoites assessed as loss of membrane integrity by TEM analysis; assay type: functional, organism-based
[30] = Acute toxicity in Albino Swiss mouse assessed as pathological lesions in liver at 300 mg/kg, po administered as single dose measured after 14 days by H and E staining based analysis; assay type: organism-based; details: in vivo, 336 h, time 14 day
[31] = Acute toxicity in Albino Swiss mouse assessed as pathological damage in spleen at 300 mg/kg, po administered as single dose measured after 14 days by H and E staining based analysis; assay type: organism-based; details: in vivo, 336 h, time 14 day
Plasmodium falciparum [32] = test: Induction of morphological changes in chloroquine-resistant Plasmodium falciparum W2 trophozoites assessed as degraded cytoplasm by TEM analysis relative to control; assay type: functional
Plasmodium falciparum [33] = test: Induction of morphological changes in chloroquine-resistant Plasmodium falciparum W2 trophozoites assessed as deteriorated food vacuole by TEM analysis; assay type: functional, organism-based
[34] = Acute toxicity in Albino Swiss mouse assessed as pathological changes in kidney at 300 mg/kg, po administered as single dose measured after 14 days by H and E staining based analysis; assay type: organism-based; details: in vivo, 336 h, time 14 day
[35] = Acute toxicity in Albino Swiss mouse assessed as macroscopic alterations in liver at 300 mg/kg, po administered as single dose measured after 14 days by H and E staining based analysis; assay type: organism-based; details: in vivo, 336 h, time 14 day
Plasmodium berghei [36] = test: Antimalarial activity against Plasmodium berghei ANKA infected in Albino Swiss mouse assessed as reduction in parasitemia at 30 mg/kg, po administered for 4 consecutive days measured after day 7 relative to control; assay type: functional; parameters: scale not given: the % may be the effect or the level left; details: time 7 day

| Structure (SMILES) | Activity [1] | Activity [2] | Activity [3] | Activity [4] | Activity [5] | logP [6] | Activity [7] | hemolysis at 1 h [8] [%] | Activity [9] | Activity [10] | CC50 (HepG2) [µM] | selectivity ratio [11] | Activity [12] | CC50 at 24 h [13] [µM] | Activity [14] | Activity [15] | Activity [16] | IC50 (Plasmodium falciparum [17]) [µM] | Activity [18] | selectivity ratio [19] | other results |
| --- | --- | --- | --- | --- | --- | --- | --- | --- | --- | --- | --- | --- | --- | --- | --- | --- | --- | --- | --- | --- | --- |
| O=C1C=C(NCCn2cc(-c3ccccc3)nn2)C(=O)c2ccccc21 | Non-Toxic | Non-Toxic | Non-Toxic | Non-Toxic | Non-Toxic | 2.67 | Non-Toxic | < 40 | Non-Toxic | Non-Toxic | 278 | 343 | Non-Toxic | 116 | Non-Toxic | Non-Toxic | Non-Toxic | 0.81 | Non-Toxic | 143 | Activity [20]: Non-Toxic; Activity [21]: Non-Toxic; Activity [22]: Non-Toxic; Activity [23]: Non-Toxic; hemolysis at 1 h, up to 1000 µM [24]: > 40%; Activity [25]: Non-Toxic; Survival (Plasmodium berghei [26]): 13 days |
| COc1ccc(-c2cn(CCNC3=CC(=O)c4ccccc4C3=O)nn2)cc1 | Non-Toxic | Non-Toxic | Non-Toxic | Non-Toxic | Non-Toxic | 2.72 | Non-Toxic | < 40 | Non-Toxic | Non-Toxic | 289 | 68.8 | Non-Toxic | 401 | Non-Toxic | Non-Toxic | Non-Toxic | 4.2 | Non-Toxic | 95.8 | Activity (Plasmodium falciparum [27]): Active; mortality at 336 h [28]: 20%; Activity (Plasmodium falciparum [29]): Active; Activity [30]: Toxic; Activity [31]: Non-Toxic; Activity (Plasmodium falciparum [32]): 100%; Activity (Plasmodium falciparum [33]): Active; Activity [34]: Non-Toxic; Activity [20]: Non-Toxic; Activity [21]: Non-Toxic; Activity [22]: Non-Toxic; Activity [35]: Non-Toxic; Activity [23]: Non-Toxic; hemolysis at 1 h, up to 1000 µM [24]: > 40%; Activity [25]: Non-Toxic; Activity (Plasmodium berghei [36]): 33%; Survival (Plasmodium berghei [26]): 26 days |
| CC(C)(O)c1cn(CCNC2=CC(=O)c3ccccc3C2=O)nn1 | Non-Toxic | Non-Toxic | Non-Toxic | Non-Toxic | Non-Toxic | 1.38 | Non-Toxic | < 40 | Non-Toxic | Non-Toxic | 233 | 35.3 | Non-Toxic | 188 | Non-Toxic | Non-Toxic | Non-Toxic | 6.6 | Non-Toxic | 28.5 | Activity [20]: Non-Toxic; Activity [21]: Non-Toxic; Activity [22]: Non-Toxic; Activity [23]: Non-Toxic; hemolysis at 1 h, up to 1000 µM [24]: > 40%; Activity [25]: Non-Toxic; Survival (Plasmodium berghei [26]): 14 days |
| Cc1ccc(-c2cn(CCNC3=CC(=O)c4ccccc4C3=O)nn2)cc1 | Non-Toxic | Non-Toxic | Non-Toxic | Non-Toxic | Non-Toxic | 3.12 | Non-Toxic | < 40 | Non-Toxic | Non-Toxic | 104 | 6.88 | Non-Toxic | 207 | Non-Toxic | Non-Toxic | Non-Toxic | 15.1 | Non-Toxic | 13.7 | mortality at 336 h [28]: 100%; Activity [20]: Non-Toxic; Activity [21]: Non-Toxic; Activity [22]: Non-Toxic; Activity [23]: Non-Toxic; hemolysis at 1 h, up to 1000 µM [24]: > 40%; Activity [25]: Non-Toxic; Survival (Plasmodium berghei [26]): 14 days |
